Test results as given in US20230114728A1 (Venatorx Pharmaceuticals, Inc., priority 2019, published 2023).
Values after ≈ are worked out from the molar mass of the structure shown.

Columns and labels:
Test in all cases: Broth microdilution MIC in CAMHB
Format in all cases: cell-based
[1] = tested on: K. pneumoniae UMM producing SHV-5 and KPC-2; conditions: Klebsiella pneumoniae, read-out: Minimum Inhibitory Concentration, K. pneumoniae UMM
Method in brief: (§1)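 CLSI broth microdilution in CAMHB: 2-fold compound dilutions inoculated at 2-8×10^5 CFU/mL from 3-5 h log-phase cultures. Incubated at 37 °C for 16-20 h (Enterobacteriaceae, Pseudomonas); MIC read visually as lowest concentration without growth. Strains include hyper-permeable and efflux-deficient mutants.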

P. aeruginosa ATCC 27853 = conditions: Pseudomonas aeruginosa, ATCC27853; MHB; read-out: Minimum Inhibitory Concentration, P. aeruginosa ATCC 27853
Method in brief: as §1

A. baumannii ATCC 19606 = conditions: Acinetobacter baumannii, ATCC19606; MHB; read-out: Minimum Inhibitory Concentration, A. baumannii ATCC 19606
Method in brief: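 Per CLSI broth microdilution, colonies were grown 3-5 h at 37° C in cation-adjusted Mueller Hinton broth, then diluted to a starting inoculum of 2-8×10^5 CFU/mL against 2-fold serial compound dilutions. Plates were incubated 16-20 h at 37° C, and MIC was read visually as the lowest concentration with no growth.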

E. coli AG100 = conditions: Escherichia coli; E. coli AG100 (wild-type parent); MHB; read-out: Minimum Inhibitory Concentration, E. coli AG100
Method in brief: as §1

[2] = tested on: K. pneumoniae 848844 producing SHV-11 and KPC-2; conditions: Klebsiella pneumoniae, read-out: Minimum Inhibitory Concentration, K. pneumoniae 848844
Method in brief: as §1

E. coli ATCC 25922 = conditions: Escherichia coli, ATCC25922; E. coli ATCC 25922; MHB; read-out: Minimum Inhibitory Concentration, E. coli 25922
Method in brief: as §1

E. coli AG100A = conditions: Escherichia coli, read-out: Minimum Inhibitory Concentration, E. coli AG100A
Method in brief: as §1

E. coli 901C = conditions: Escherichia coli; E. coli 901C (hyper-permeable); MHB; read-out: Minimum Inhibitory Concentration, E. coli 901C
Method in brief: as §1

E. coli D22 = conditions: Escherichia coli; E. coli D22 (hyper-permeable); MHB; read-out: Minimum Inhibitory Concentration, E. coli D22
Method in brief: as §1

[3] = tested on: K. pneumoniae SI-117 producing VIM-1; conditions: Klebsiella pneumoniae, read-out: Minimum Inhibitory Concentration, K. pneumoniae SI-117
Method in brief: as §1

[4] = tested on: P. aeruginosa (ΔmexAB-oprM); conditions: Pseudomonas aeruginosa, read-out: Minimum Inhibitory Concentration, P. aeruginosa ΔmexAB-OprM
Method in brief: as §1

P. aeruginosa ATCC 35151 = conditions: Pseudomonas aeruginosa, ATCC35151; MHB; hyper-permeable strain; read-out: Minimum Inhibitory Concentration, P. aeruginosa ATCC 35151
Method in brief: as §1

| Structure (SMILES) | MIC [1] [mg/L] | MIC (P. aeruginosa ATCC 27853) [mg/L] | MIC (A. baumannii ATCC 19606) [mg/L] | MIC (E. coli AG100) [mg/L] | MIC [2] [mg/L] | MIC (E. coli ATCC 25922) [mg/L] | MIC (E. coli AG100A) [mg/L] | MIC (E. coli 901C) [mg/L] | MIC (E. coli D22) [mg/L] | MIC [3] [mg/L] | MIC [4] [mg/L] | MIC (P. aeruginosa ATCC 35151) [mg/L] |
| --- | --- | --- | --- | --- | --- | --- | --- | --- | --- | --- | --- | --- |
| CCN1CCN(C(=O)N[C@@H](C(=O)N[C@H]2Cc3cccc(C(=O)O)c3OB2O)c2ccc(C(=O)O)cc2Cl)C(=O)C1=O (single isomer, unassigned) [Example 151] | > 128 | > 128 | > 128 | 32 to 64 (≈ 54.5 to 109 µM) | > 128 | > 128 | 8 to 16 (≈ 13.6 to 27.3 µM) | < 0.25 | 2 to 4 (≈ 3.41 to 6.82 µM) | > 128 | 8 to 16 (≈ 13.6 to 27.3 µM) | 0.5 to 1 (≈ 0.852 to 1.7 µM) |
| CCN1CCN(C(=O)N[C@H](C(=O)N[C@H]2Cc3cccc(C(=O)O)c3OB2O)c2ccc(C(=O)O)cc2Cl)C(=O)C1=O (single isomer, unassigned) [Example 152] | > 128 | > 128 | > 128 | > 128 | > 128 | > 128 | 32 to 64 (≈ 54.5 to 109 µM) | 0.5 to 1 (≈ 0.852 to 1.7 µM) | 8 to 16 (≈ 13.6 to 27.3 µM) | > 128 | 32 to 64 (≈ 54.5 to 109 µM) | 0.5 to 1 (≈ 0.852 to 1.7 µM) |
| CCN1CCN(C(=O)N[C@H](C(=O)N[C@H]2Cc3cccc(C(=O)O)c3OB2O)c2ccc(C(=O)O)c(Cl)c2)C(=O)C1=O (single isomer, unassigned) [Example 155] | > 128 | > 128 | > 128 | 32 to 64 (≈ 54.5 to 109 µM) | > 128 | > 128 | 8 to 16 (≈ 13.6 to 27.3 µM) | < 0.25 | 2 to 4 (≈ 3.41 to 6.82 µM) | > 128 | 8 to 16 (≈ 13.6 to 27.3 µM) | 0.5 to 1 (≈ 0.852 to 1.7 µM) |
| NCCN1CCN(C(=O)N[C@H](C(=O)N[C@H]2Cc3cccc(C(=O)O)c3OB2O)c2cc(F)c(O)c(F)c2)C(=O)C1=O (single isomer, unassigned) [Example 158] | > 128 | > 128 | > 128 | > 128 | > 128 | > 128 | 8 to 16 (≈ 13.9 to 27.8 µM) | 2 to 4 (≈ 3.48 to 6.95 µM) | 8 to 16 (≈ 13.9 to 27.8 µM) | > 128 | 32 to 64 (≈ 55.6 to 111 µM) | 0.5 to 1 (≈ 0.869 to 1.74 µM) |
| NCCN1CCN(C(=O)N[C@@H](C(=O)N[C@H]2Cc3cccc(C(=O)O)c3OB2O)c2cc(F)c(O)c(F)c2)C(=O)C1=O (single isomer, unassigned) [Example 159] | 8 to 16 (≈ 13.9 to 27.8 µM) | 32 to 64 (≈ 55.6 to 111 µM) | > 128 | 8 to 16 (≈ 13.9 to 27.8 µM) | 32 to 64 (≈ 55.6 to 111 µM) | 8 to 16 (≈ 13.9 to 27.8 µM) | 2 to 4 (≈ 3.48 to 6.95 µM) | 0.5 to 1 (≈ 0.869 to 1.74 µM) | 2 to 4 (≈ 3.48 to 6.95 µM) | 32 to 64 (≈ 55.6 to 111 µM) | 2 to 4 (≈ 3.48 to 6.95 µM) | < 0.25 |
| NCCN1CCN(C(=O)N[C@H](C(=O)N[C@H]2Cc3cccc(C(=O)O)c3OB2O)c2cc(Cl)c(O)c(Cl)c2)C(=O)C1=O (single isomer, unassigned) [Example 165] | > 128 | > 128 | > 128 | > 128 | > 128 | > 128 | 8 to 16 (≈ 13.2 to 26.3 µM) | 2 to 4 (≈ 3.29 to 6.58 µM) | 32 to 64 (≈ 52.6 to 105 µM) | > 128 | 8 to 16 (≈ 13.2 to 26.3 µM) | 0.5 to 1 (≈ 0.822 to 1.64 µM) |
| NCCN1CCN(C(=O)N[C@@H](C(=O)N[C@H]2Cc3cccc(C(=O)O)c3OB2O)c2cc(Cl)c(O)c(Cl)c2)C(=O)C1=O (single isomer, unassigned) [Example 166] | 32 to 64 (≈ 52.6 to 105 µM) | 8 to 16 (≈ 13.2 to 26.3 µM) | > 128 | 8 to 16 (≈ 13.2 to 26.3 µM) | 32 to 64 (≈ 52.6 to 105 µM) | 8 to 16 (≈ 13.2 to 26.3 µM) | 0.5 to 1 (≈ 0.822 to 1.64 µM) | < 0.25 | 2 to 4 (≈ 3.29 to 6.58 µM) | 32 to 64 (≈ 52.6 to 105 µM) | 2 to 4 (≈ 3.29 to 6.58 µM) | < 0.25 |
| NCCN1CCN(C(=O)N[C@H](C(=O)N[C@H]2Cc3cccc(C(=O)O)c3OB2O)c2cc(F)c(O)c(F)c2F)C(=O)C1=O (single isomer, unassigned) [Example 167] | 32 to 64 (≈ 53.9 to 108 µM) | > 128 | > 128 | 32 to 64 (≈ 53.9 to 108 µM) | > 128 | 32 to 64 (≈ 53.9 to 108 µM) | 8 to 16 (≈ 13.5 to 27 µM) | 2 to 4 (≈ 3.37 to 6.74 µM) | 8 to 16 (≈ 13.5 to 27 µM) | > 128 | 8 to 16 (≈ 13.5 to 27 µM) | 0.5 to 1 (≈ 0.843 to 1.69 µM) |
| NCCN1CCN(C(=O)N[C@@H](C(=O)N[C@H]2Cc3cccc(C(=O)O)c3OB2O)c2cc(F)c(O)c(F)c2F)C(=O)C1=O (single isomer, unassigned) [Example 168] | 8 to 16 (≈ 13.5 to 27 µM) | 32 to 64 (≈ 53.9 to 108 µM) | > 128 | 8 to 16 (≈ 13.5 to 27 µM) | 32 to 64 (≈ 53.9 to 108 µM) | 8 to 16 (≈ 13.5 to 27 µM) | 0.5 to 1 (≈ 0.843 to 1.69 µM) | < 0.25 | 0.5 to 1 (≈ 0.843 to 1.69 µM) | 32 to 64 (≈ 53.9 to 108 µM) | 2 to 4 (≈ 3.37 to 6.74 µM) | < 0.25 |
| NCCN1CCN(C(=O)N[C@H](C(=O)N[C@H]2Cc3cccc(C(=O)O)c3OB2O)c2ccc(O)c(F)c2F)C(=O)C1=O (single isomer, unassigned) [Example 169] | > 128 | > 128 | > 128 | 32 to 64 (≈ 55.6 to 111 µM) | > 128 | 8 to 16 (≈ 13.9 to 27.8 µM) | 32 to 64 (≈ 55.6 to 111 µM) | 2 to 4 (≈ 3.48 to 6.95 µM) | 32 to 64 (≈ 55.6 to 111 µM) | > 128 | 32 to 64 (≈ 55.6 to 111 µM) | 2 to 4 (≈ 3.48 to 6.95 µM) |
| NCCN1CCN(C(=O)N[C@@H](C(=O)N[C@H]2Cc3cccc(C(=O)O)c3OB2O)c2ccc(O)c(F)c2F)C(=O)C1=O (single isomer, unassigned) [Example 170] | 8 to 16 (≈ 13.9 to 27.8 µM) | 32 to 64 (≈ 55.6 to 111 µM) | > 128 | 8 to 16 (≈ 13.9 to 27.8 µM) | 32 to 64 (≈ 55.6 to 111 µM) | 8 to 16 (≈ 13.9 to 27.8 µM) | 2 to 4 (≈ 3.48 to 6.95 µM) | 0.5 to 1 (≈ 0.869 to 1.74 µM) | 2 to 4 (≈ 3.48 to 6.95 µM) | 32 to 64 (≈ 55.6 to 111 µM) | 2 to 4 (≈ 3.48 to 6.95 µM) | < 0.25 |
| NS(=O)(=O)c1cccc(C(NC(=O)N2CCN(CCF)C(=O)C2=O)C(=O)N[C@H]2Cc3cccc(C(=O)O)c3OB2O)c1 (stereo partly drawn) [Example 100, (3R)-3-(2-(4-(2-fluoroethyl)-2,3-dioxopiperazine-1-carboxamido)-2-(3-sulfamoylphenyl)acetamido)-2-hydroxy-3,4-dihydro-2H-benzo[e][1,2]oxaborinine-8-carboxylic acid] | 32 to 64 (≈ 52.9 to 106 µM) | > 128 | > 128 | 32 to 64 (≈ 52.9 to 106 µM) | 32 to 64 (≈ 52.9 to 106 µM) | 32 to 64 (≈ 52.9 to 106 µM) | 2 to 4 (≈ 3.3 to 6.61 µM) | < 0.25 | 2 to 4 (≈ 3.3 to 6.61 µM) | 32 to 64 (≈ 52.9 to 106 µM) | 8 to 16 (≈ 13.2 to 26.4 µM) | 2 to 4 (≈ 3.3 to 6.61 µM) |
